Drawing on patent US10077243B2, “Compounds for treating disorders mediated by metabotropic glutamate receptor 5, and methods of use thereof” (Sunovion Pharmaceuticals Inc., priority 2009, dated 2018), this text covers EC50 for 13 compounds.

A word on the EC50: it is the concentration giving half of the maximal effect.

T1 sequence (P41594 21-1212): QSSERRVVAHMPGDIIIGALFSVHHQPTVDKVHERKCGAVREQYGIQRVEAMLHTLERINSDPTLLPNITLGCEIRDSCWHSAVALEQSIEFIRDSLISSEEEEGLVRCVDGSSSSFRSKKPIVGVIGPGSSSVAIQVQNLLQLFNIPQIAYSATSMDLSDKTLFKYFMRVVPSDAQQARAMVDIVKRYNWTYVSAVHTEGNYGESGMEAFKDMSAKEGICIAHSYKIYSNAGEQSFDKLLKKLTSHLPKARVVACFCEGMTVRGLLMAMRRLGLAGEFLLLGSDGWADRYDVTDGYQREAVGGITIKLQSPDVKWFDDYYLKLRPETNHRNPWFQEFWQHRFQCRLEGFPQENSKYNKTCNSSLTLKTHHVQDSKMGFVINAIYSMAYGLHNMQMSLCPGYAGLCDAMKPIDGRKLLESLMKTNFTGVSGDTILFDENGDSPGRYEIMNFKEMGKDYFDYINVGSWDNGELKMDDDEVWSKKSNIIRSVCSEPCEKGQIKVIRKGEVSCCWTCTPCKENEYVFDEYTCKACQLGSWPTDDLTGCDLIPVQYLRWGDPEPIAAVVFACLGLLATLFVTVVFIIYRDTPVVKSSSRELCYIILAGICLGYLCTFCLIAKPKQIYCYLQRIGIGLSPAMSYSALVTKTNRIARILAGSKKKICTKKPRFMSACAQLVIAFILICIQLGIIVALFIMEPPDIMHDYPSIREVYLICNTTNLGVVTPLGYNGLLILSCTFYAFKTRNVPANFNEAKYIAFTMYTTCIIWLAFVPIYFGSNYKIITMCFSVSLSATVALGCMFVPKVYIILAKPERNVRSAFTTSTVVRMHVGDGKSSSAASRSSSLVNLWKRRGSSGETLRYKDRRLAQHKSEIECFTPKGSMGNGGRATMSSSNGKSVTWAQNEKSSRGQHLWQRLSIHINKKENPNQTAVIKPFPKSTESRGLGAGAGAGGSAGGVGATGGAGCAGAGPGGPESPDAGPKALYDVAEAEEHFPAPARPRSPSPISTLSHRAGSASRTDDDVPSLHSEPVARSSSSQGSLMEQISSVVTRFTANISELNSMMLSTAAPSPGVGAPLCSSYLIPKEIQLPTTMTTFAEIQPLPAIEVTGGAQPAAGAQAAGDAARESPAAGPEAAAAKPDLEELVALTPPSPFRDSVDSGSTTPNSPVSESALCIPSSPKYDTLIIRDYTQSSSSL

This test addresses T1, human mGluR5 (Homo sapiens, UniProt P41594).
T1 construct: expressed in transfected cells; host or cells: HEK293 cells stably expressing rat GLAST (EAAT1), stably transfected with pcDNAzeo3.1 carrying synthetic human mGluR5 DNA; zeocin-selected single clones
Briefly: In vitro cell-based FLIPR calcium assay for positive modulation of the activation of mGluR5 by glutamate (PAM EC50). The settings on record: HEK293/GLAST cells expressing recombinant human mGluR5; FLIPR calcium signal; glutamate added at its EC20; read-out: mGluR5 PAM EC50. A digest of the protocol: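 PAM activity was measured as FLIPR calcium fluorescence in the presence of an EC20 glutamate concentration determined daily from a glutamate concentration-response curve. Cells were HEK293/GLAST clones expressing mGluR5, dye-loaded at 25 °C for 45–60 min in HEPES-buffered HBSS; vehicle control was 0.3% DMSO.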
Regarding `O=c1c2ccc(C#Cc3cccc(F)c3)cc2nc2n1CCN(Cc1ccccc1)CC2` [Example 8.9, 3-benzyl-8-((3-fluorophenyl)ethynyl)-2,3,4,5-tetrahydro-[1,4]diazepino[7,1-b]quinazolin-11(1H)-one], the concentration for a half-maximal effect (EC50) is 10 to 30 nM.

On to `COCCN1CCc2nc3cc(C#Cc4cccc(F)c4)ccc3c(=O)n2CC1` [Example 8.10, 8-((3-fluorophenyl)ethynyl)-3-(2-methoxyethyl)-2,3,4,5-tetrahydro-[1,4]diazepino[7,1-b]quinazolin-11(1H)-one], for which the EC50 fell in the range of 100 to 300 nM.

As for `O=c1c2ccc(C#Cc3cccc(F)c3)cc2nc2n1CCN(C1CCC1)CC2` [Example 8.11, 3-cyclobutyl-8-((3-fluorophenyl)ethynyl)-2,3,4,5-tetrahydro-[1,4]diazepino[7,1-b]quinazolin-11(1H)-one], the EC50 lay in the range of 300 to 1000 nM.

For `C=CCN1CCc2nc3cc(C#Cc4cccc(F)c4)ccc3c(=O)n2CC1` [Example 8.12, 3-allyl-8-((3-fluorophenyl)ethynyl)-2,3,4,5-tetrahydro-[1,4]diazepino[7,1-b]quinazolin-11(1H)-one], the concentration for a half-maximal effect (EC50) fell in the range of 10 to 30 nM.

In the case of `O=c1c2ccc(C#Cc3cccc(F)c3)cc2nc2n1CCN(C1CCOC1)CC2` (stereo not shown) [Example 8.13, 8-((3-fluorophenyl)ethynyl)-3-(tetrahydrofuran-3-yl)-2,3,4,5-tetrahydro-[1,4]diazepino[7,1-b]quinazolin-11(1H)-one acetonitrile], the EC50 fell in the range of 100 to 300 nM.

`N#CCN1CCc2nc3cc(C#Cc4cccc(F)c4)ccc3c(=O)n2CC1` [Example 8.14, 2-(8-((3-fluorophenyl)ethynyl)-11-oxo-1,2,4,5-tetrahyrdro-[1,4]diazepino[7,1-b]quinazolin-3(11H)-yl)acetonitrile]: the concentration for a half-maximal effect (EC50) fell in the range of 10 to 30 nM.

Consider `CNC(=O)CN1CCc2nc3cc(C#Cc4cccc(F)c4)ccc3c(=O)n2CC1` [Example 8.15, 2-(8-((3-fluorophenyl)ethynyl)-11-oxo-1,2,4,5-tetrahydro-[1,4]diazepino[7,1-b]quinazolin-3(11H)-yl)-N-methylacetamide], for which the EC50 fell in the range of 100 to 300 nM.

Turning to `O=c1c2ccc(C#Cc3cccc(F)c3)cc2nc2n1CCN(CC1CCCO1)CC2` (stereo not shown) [Example 8.16, 8-((3-fluorophenyl)ethynyl)-3-((tetrahydrofuran-2-yl)methyl)-2,3,4,5-tetrahydro-[1,4]diazepino[7,1-b]quinazolin-11(1H)-one], the concentration for a half-maximal effect (EC50) fell in the range of 100 to 300 nM.

Consider `CC(=O)N1CCc2nc3cc(C#Cc4cccc(F)c4)ccc3c(=O)n2CC1` [Example 8.17, 3-acetyl-8-((3-fluorophenyl)ethynyl)-2,3,4,5-tetrahydro-[1,4]diazepino[7,1-b]quinazolin-11(1H)-one], for which the EC50 lay in the range of 100 to 300 nM.

As to `O=CN1CCc2nc3cc(C#Cc4cccc(F)c4)ccc3c(=O)n2CC1` [Example 8.18, 8-((3-fluorophenyl)ethynyl)-11-oxo-1,2,4,5-tetrahydro-[1,4]diazepino[7,1-b]quinazoline-3(11H)-carbaldehyde], the EC50 is 30 to 100 nM.

Turning to `O=c1c2ccc(C#Cc3ccccn3)cc2nc2n1CCN(CCC(F)(F)F)CC2` [Example 8.21, 8-(pyridin-2-ylethynyl)-3-(3,3,3-trifluoropropyl)-2,3,4,5-tetrahydro-[1,4]diazepino[7,1-b]quinazolin-11(1H)-one], the half-maximal effective concentration (EC50) lay within 100 to 300 nM.

Consider `C#CCN1CCc2nc3cc(C#Cc4ccccn4)ccc3c(=O)n2CC1` [Example 8.22, 3-(prop-2-yn-1-yl)-8-(pyridin-2-ylethynyl)-2,3,4,5-tetrahydro-[1,4]diazepino[7,1-b]quinazolin-11(1H)-one], for which the concentration giving a half-maximal response (EC50) lay in the range of 30 to 100 nM.

`N#CCN1CCc2nc3cc(C#Cc4ccccn4)ccc3c(=O)n2CC1` [Example 8.23, 2-(11-oxo-8-(pyridin-2-ylethynyl)-1,2,4,5-tetrahydro-[1,4]diazepino[7,1-b]quinazolin-3(11H)-yl)acetonitrile]: the concentration giving a half-maximal response (EC50) lay in the range of 30 to 100 nM.
